Reference: patent publication US10329270B2, “Heteroaryl compounds as BTK inhibitors and uses thereof” (Merck Patent GmbH, priority 2013, dated 2019)

Experiments:
[1] = target: T1, full-length human BTK (Homo sapiens, UniProt Q06187); test: Assay A: BTK IC50 Enzyme Assay (microfluidic off-chip mobility shift kinase assay); type: biochemical; conditions: full-length human BTK, kinKDR peptide substrate, incubated 90 min at 27 C; read-out: Assay A (Time Dependent BTK Enzyme Assay IC50)
T1 construct: 2.5× stocks of full-length human BTK (08-080); purchased CarnaBio USA, Inc., Natick, Mass; 08-080
Outline: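 Off-chip microfluidic mobility shift assay with full-length human BTK; phosphorylated and unphosphorylated peptide substrate were separated by charge/mass on a LabChip 3000.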

[2] = system: PBMC; test: Assay B: Time Dependent PMBC IC50 Assay; type: cell-based
Protocol: Assay B: Time Dependent PMBC IC50 Assay
Compounds described by embodiments of the present invention were assayed using a time dependent PMBC assay. The data from the same is recorded in Table 2 within the column labeled: “Time Dependent PBMC Assay IC50.” These IC50 values are reported in ranges wherein: I<1 uM and II>1 uM.

[3] = target: T2, BTK in human whole blood (Homo sapiens, UniProt Q06187); test: Assay C: Time Dependent Human Whole Blood IC50 Assay; type: cell-based; conditions: read-out: Assay C (Time Dependent Human Whole Blood BTK Enzyme Assay IC50)
T2 construct: endogenous in cells; host or cells: human whole blood
Protocol: Assay C: Time Dependent Human Whole Blood IC50 Assay
Compounds described by embodiments of the present invention were assayed using a human whole blood assay. The data from the same is recorded in Table 2 within the column labeled: “Time Dependent Human Whole Blood BTK Enzyme Assay IC50”.

T2 sequence (Q06187 whole entry): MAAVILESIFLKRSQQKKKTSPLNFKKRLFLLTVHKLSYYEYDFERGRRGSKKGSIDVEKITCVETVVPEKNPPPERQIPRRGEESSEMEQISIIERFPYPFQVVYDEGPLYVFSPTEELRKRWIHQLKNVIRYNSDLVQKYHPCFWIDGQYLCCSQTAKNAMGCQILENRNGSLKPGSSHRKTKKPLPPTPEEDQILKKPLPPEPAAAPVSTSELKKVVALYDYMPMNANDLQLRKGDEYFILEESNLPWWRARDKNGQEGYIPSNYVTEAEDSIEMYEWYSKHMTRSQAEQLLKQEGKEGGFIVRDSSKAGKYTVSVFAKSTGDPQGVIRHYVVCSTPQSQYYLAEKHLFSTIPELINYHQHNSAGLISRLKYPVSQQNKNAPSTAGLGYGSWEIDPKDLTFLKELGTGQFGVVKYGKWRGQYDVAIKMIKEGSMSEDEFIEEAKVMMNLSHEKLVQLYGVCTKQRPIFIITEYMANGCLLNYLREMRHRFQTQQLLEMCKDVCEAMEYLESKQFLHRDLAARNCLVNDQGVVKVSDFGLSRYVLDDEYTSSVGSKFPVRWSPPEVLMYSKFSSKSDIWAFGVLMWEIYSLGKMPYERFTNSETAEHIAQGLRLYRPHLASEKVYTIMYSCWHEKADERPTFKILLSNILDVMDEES
T1 sequence (Q06187 whole entry): as above

SMILES	IC50 [1] [nM]	IC50 [3] [nM]	IC50 [2] [nM]
C=CC(=O)N1CCC(c2cnc(C(N)=O)c(NC(C)=O)c2)CC1 [Compound 134]	< 100	–	100 to 1000
C=CC(=O)N[C@H]1CCN(c2ccc(C(N)=O)c(Nc3ccc(N4C[C@@H](C)O[C@@H](C)C4)nc3)n2)C1 [Compound 37, 6-((S)-3-Acryloylamino-pyrrolidin-1-yl)-2-[6-(cis-2,6-dimethyl-morpholin-4-yl)-pyridin-3-ylamino]-nicotinamide]	< 100	100 to 1000	< 100
C=CC(=O)N1CCC=C(c2ccc(C(N)=O)c(Nc3ccc(CCN4CCCC4)cc3)n2)C1 [Compound 44, 1′-Acryloyl-6-[4-(2-pyrrolidin-1-yl-ethyl)-phenylamino]-1′,2′,5′,6′-tetrahydro-[2,3′]bipyridinyl-5-carboxylic acid amide]	< 100	–	100 to 1000
C=CC(=O)N[C@@H]1CN(c2ccc(C(N)=O)c(Nc3ccc(CCN4CCCC4)cc3)n2)CC12CC2 [Compound 7, 6-((S)-7-Acryloylamino-5-aza-spiro[2.4]hept-5-yl)-2-[4-(2-pyrrolidin-1-yl-ethyl)-phenylamino]-nicotinamide]	< 100	–	< 100
C=CC(=O)N1CCC(c2ccc(C(N)=O)c(Nc3ccc(C(=O)N4CCCC(NC(=O)CCOCCOCCOCCOCCNC(=O)CCCC[C@@H]5SCC6NC(=O)NC65)C4)cc3)n2)CC1 (stereo partly drawn) [Compound 191, 6-(1-acryloylpiperidin-4-yl)-2-((4-(3-(17-oxo-21-((4S)-2-oxohexahydro-1H-thieno[3,4-d]imidazol-4-yl)-4,7,10,13-tetraoxa-16-azahenicosanamido)piperidine-1-carbonyl)phenyl)amino)nicotinamide]	< 100	–	> 5000
C=CC(=O)N1CCC(c2ccc(C(N)=O)c(Nc3ccc(C(=O)N4CCCCC4)cc3)n2)CC1 [Compound 22, 1′-Acryloyl-6-[4-(piperidine-1-carbonyl)-phenylamino]-1′,2′,3′,4′,5′,6′-hexahydro-[2,4′]bipyridinyl-5-carboxylic acid amide]	< 100	–	< 100
C=CC(=O)N[C@H]1CCN(c2ccc(C(N)=O)c(Nc3ccc(C(=O)N4CC(C)OC(C)C4)cc3)n2)C1 (stereo partly drawn) [Compound 40, 6-((S)-3-Acryloylamino-pyrrolidin-1-yl)-2-[4-(2,6-dimethyl-morpholine-4-carbonyl)-phenylamino]-nicotinamide]	< 100	–	100 to 1000
C=CC(=O)N[C@H]1CCN(c2nc(Nc3ccc(N4CC(C)OC(C)C4)cc3)c(C(N)=O)cc2F)C1 (stereo partly drawn) [Compound 188, 6-((S)-3-Acryloylamino-pyrrolidin-1-yl)-2-[4-(2,6-dimethyl-morpholin-4-yl)-phenylamino]-5-fluoro-nicotinamide]	< 100	–	< 100
C=CC(=O)N1CCC(c2ccc(C(N)=O)c(Nc3ccc(C(=O)N4CCN(C(=O)CCCCNC(=O)CCOCCOCCOCCOCCNC(=O)CCCCC5SCC6NC(=O)NC65)CC4)cc3)n2)CC1 (centres unmarked) [Compound 177]	< 100	–	> 5000
C=CC(=O)N1CCN(c2ccc(C(N)=O)c(Nc3ccc(CCN4CCCC4)cc3)n2)CC1 [Compound 12, 6-(4-Acryloyl-piperazin-1-yl)-2-[4-(2-pyrrolidin-1-yl-ethyl)-phenylamino]-nicotinamide]	< 100	–	< 100
C=CC(=O)N[C@H]1CCN(c2nc(Nc3ccc(C(=O)NC(C)(C)C)cc3)c(F)cc2C(N)=O)C1 [Compound 3, (S)-2-(3-acrylamidopyrrolidin-1-yl)-6-((4-(tert-butylcarbamoyl)phenyl)amino)-5-fluoronicotinamide]	< 100	< 100	< 100
C=CC(=O)N(C)[C@H]1CCN(c2ccc(C(N)=O)c(Nc3ccc(CCN4CCCC4)cc3)n2)C1 [Compound 30, 6-[(S)-3-(Acryloyl-methyl-amino)-pyrrolidin-1-yl]-2-[4-(2-pyrrolidin-1-yl-ethyl)-phenylamino]-nicotinamide]	< 100	–	< 100
C=CC(=O)N[C@H]1CCN(c2ccc(C(N)=O)c(Nc3ccc(N4CCOCC4)nc3)n2)C1 [Compound 38, 6-((S)-3-Acryloylamino-pyrrolidin-1-yl)-2-(6-morpholin-4-yl-pyridin-3-ylamino)-nicotinamide]	< 100	–	100 to 1000
C=CC(=O)N[C@H]1CCN(c2nc(Nc3ccc(CCN4CCCC4)cc3)c(C(N)=O)cc2F)C1 [Compound 179, 6-((S)-3-Acryloylamino-pyrrolidin-1-yl)-5-fluoro-2-[4-(2-pyrrolidin-1-yl-ethyl)-phenylamino]-nicotinamide]	< 100	–	< 100
C=CC(=O)N[C@H]1CCN(c2cc(Nc3ccc(C(=O)N4CCOCC4)cc3)c(C(N)=O)cn2)C1 [Compound 108, 6-((S)-3-Acryloylamino-pyrrolidin-1-yl)-4-[4-(morpholine-4-carbonyl)-phenylamino]-nicotinamide]	< 100	–	100 to 1000
C=CC(=O)N1CCC2(CCN(c3ccc(C(N)=O)c(Nc4ccc(CCN5CCCC5)cc4)n3)C2)C1 (centres unmarked) [Compound 20, 6-(7-Acryloyl-2,7-diaza-spiro[4.4]non-2-yl)-2-[4-(2-pyrrolidin-1-yl-ethyl)-phenylamino]-nicotinamide]	< 100	–	< 100

More lines, main results first:

IC50 [1] [nM]	IC50 [3] [nM]	SMILES	IC50 [2] [nM]
< 100	–	C=CC(=O)N1CCN(c2ncc(C(N)=O)c(Oc3ccc(Oc4ccccc4)cc3)n2)CC1 [Compound 173, 2-(4-Acryloyl-piperazin-1-yl)-4-(4-phenoxy-phenoxy)-pyrimidine-5-carboxylic acid amide]	< 100
< 100	–	C=CC(=O)N[C@H]1CCN(c2ccc(C(N)=O)c(Nc3ccc(C4CCN(C)CC4)cc3)n2)C1 [Compound 14, 6-((S)-3-Acryloylamino-pyrrolidin-1-yl)-2-[4-(1-methyl-piperidin-4-yl)-phenylamino]-nicotinamide]	< 100
< 100	100 to 1000	C=CC(=O)N1CC=C(c2ccc(C(N)=O)c(Oc3ccc(Oc4ccccc4)cc3)n2)CC1 [Compound 69, 1′-acryloyl-6-(4-phenoxyphenoxy)-1′,2′,3′,6′-tetrahydro-[2,4′-bipyridine]-5-carboxamide]	< 100
< 100	1000 to 5000	C=CC(=O)N[C@H]1CCN(c2ccc(C(N)=O)c(Nc3ccc(F)nc3)n2)C1 [Compound 46, 6-((S)-3-Acryloylamino-pyrrolidin-1-yl)-2-(6-fluoro-pyridin-3-ylamino)-nicotinamide]	< 100
< 100	–	C=CC(=O)N[C@H]1CCN(c2ccc(C(N)=O)c(Nc3ccc(N4CCCCC4)cc3)n2)C1 [Compound 31, 6-((S)-3-Acryloylamino-pyrrolidin-1-yl)-2-(4-piperidin-1-yl-phenylamino)-nicotinamide]	100 to 1000
< 100	–	N#CN1CCC[C@H](c2cnc(Oc3ccc(Oc4ccccc4)cc3)c(C(N)=O)c2)C1 [Compound 241, (R)-5-(1-cyanopiperidin-3-yl)-2-(4-phenoxyphenoxy)nicotinamide]	100 to 1000
< 100	–	C=CC(=O)N1CCC(c2ccc(C(N)=O)c(Nc3ccc(CCN4CCCC4)cc3)n2)CC1 [Compound 18, 1′-Acryloyl-6-[4-(2-pyrrolidin-1-yl-ethyl)-phenylamino]-1′,2′,3′,4′,5′,6′-hexahydro-[2,4′]bipyridinyl-5-carboxylic acid amide]	< 100
< 100	–	C=CC(=O)N1CCC(c2ccc(C(N)=O)c(Nc3ccc(OC4CCN(C)CC4)cc3)n2)CC1 [Compound 10, 1′-Acryloyl-6-[4-(1-methyl-piperidin-4-yloxy)-phenylamino]-1′,2′,3′,4′,5′,6′-hexahydro-[2,4′]bipyridinyl-5-carboxylic acid amide]	< 100
< 100	–	N#CN1CCCC(c2cnc(Oc3ccc(Oc4ccccc4)cc3)c(C(N)=O)c2)C1 (centres unmarked) [Compound 236, 1′-Cyano-6-(4-phenoxy-phenoxy)-1′,2′,3′,4′,5′,6′-hexahydro-[3,3′]bipyridinyl-5-carboxylic acid amide]	100 to 1000
< 100	–	C=CC(=O)Nc1cncc(-c2ccc(C(N)=O)c(Oc3ccc(Oc4ccccc4)cc3)n2)c1 [Compound 75, 5′-acrylamido-6-(4-phenoxyphenoxy)-[2,3′-bipyridine]-5-carboxamide]	< 100
100 to 1000	–	N#CN[C@@H]1CCCN(c2ccc(C(N)=O)c(Nc3ccc(C(=O)N4CCOCC4)cc3)n2)C1 [Compound 227, (R)-3-Cyanoamino-6′-[4-(morpholine-4-carbonyl)-phenylamino]-3,4,5,6-tetrahydro-2H-[1,2′]bipyridinyl-5′-carboxylic acid amide]	> 5000
< 100	–	C=CC(=O)N[C@H]1CCN(c2ccc(C(N)=O)c(Nc3ccc(CCN4CCCC4)cc3)n2)C1 [Compound 16, 6-((S)-3-Acryloylamino-pyrrolidin-1-yl)-2-[4-(2-pyrrolidin-1-yl-ethyl)-phenylamino]-nicotinamide]	< 100
< 100	100 to 1000	C=CC(=O)N[C@H]1CCN(c2ccc(C(N)=O)c(Nc3ccc(OC)cc3)n2)C1 [Compound 45, 6-((S)-3-Acryloylamino-pyrrolidin-1-yl)-2-(4-methoxy-phenylamino)-nicotinamide]	–
